PubChem BioAssay (NCI)
Where “and” joins values, the source holds several entries; their conditions need not be identical. Identical values can stand only once.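 A five-concentration, 48-hour dose response in 96-well plates underlies each endpoint, interpolated linearly between surrounding concentrations. Abbreviation: GI50, concentration required for 50% inhibition of growth. TGI: total growth inhibition.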

Key:
Experiment in all cases: inhibition of tumour cell growth, NCI panel, 48 h
786-0 renal = system: 786-0 renal
A498 renal = system: A498 renal
A549 NSCLC = system: A549 NSCLC
ACHN renal = system: ACHN renal
CAKI-1 renal = system: CAKI-1 renal
CCRF-CEM leukemia = system: CCRF-CEM leukemia
DLD-1 colon = system: DLD-1 colon
DMS 273 small cell lung = system: DMS 273 small cell lung
EKVX NSCLC = system: EKVX NSCLC
HOP-18 NSCLC = system: HOP-18 NSCLC
HOP-92 NSCLC = system: HOP-92 NSCLC
IGROV1 ovarian = system: IGROV1 ovarian
K-562 leukemia = system: K-562 leukemia
KM20L2 colon = system: KM20L2 colon
LXFL 529 NSCLC = system: LXFL 529 NSCLC
M14 melanoma = system: M14 melanoma
MALME-3M melanoma = system: MALME-3M melanoma
MOLT-4 leukemia = system: MOLT-4 leukemia
NCI-H460 lung = system: NCI-H460 lung
NCI-H522 lung = system: NCI-H522 lung
OVCAR-3 ovarian = system: OVCAR-3 ovarian
OVCAR-8 ovarian = system: OVCAR-8 ovarian
RPMI-8226 leukemia = system: RPMI-8226 leukemia
RXF 393 renal = system: RXF 393 renal
RXF-631 renal = system: RXF-631 renal
SF-295 CNS = system: SF-295 CNS
SF-539 CNS = system: SF-539 CNS
SK-MEL-5 melanoma = system: SK-MEL-5 melanoma
SN12C renal = system: SN12C renal
SR leukemia = system: SR leukemia
SW-620 colon = system: SW-620 colon
TK-10 renal = system: TK-10 renal
UO-31 renal = system: UO-31 renal
BT-549 breast = system: BT-549 breast
DMS 114 small cell lung = system: DMS 114 small cell lung
DU-145 prostate = system: DU-145 prostate
HCC-2998 colon = system: HCC-2998 colon
HCT-116 colon = system: HCT-116 colon
HCT-15 colon = system: HCT-15 colon
HL-60(TB) leukemia = system: HL-60(TB) leukemia
HOP-62 NSCLC = system: HOP-62 NSCLC
HS 578T breast = system: HS 578T breast
HT29 colon = system: HT29 colon
KM12 colon = system: KM12 colon
M19-MEL melanoma = system: M19-MEL melanoma
MCF7 breast = system: MCF7 breast
MDA-MB-231 breast = system: MDA-MB-231 breast
MDA-MB-435 = system: MDA-MB-435
MDA-N = system: MDA-N
NCI-H226 lung = system: NCI-H226 lung
NCI/ADR-RES ovarian = system: NCI/ADR-RES ovarian
OVCAR-5 ovarian = system: OVCAR-5 ovarian
SF-268 CNS = system: SF-268 CNS
SK-MEL-2 melanoma = system: SK-MEL-2 melanoma
SK-MEL-28 melanoma = system: SK-MEL-28 melanoma
SK-OV-3 ovarian = system: SK-OV-3 ovarian
SNB-19 CNS = system: SNB-19 CNS
SNB-75 CNS = system: SNB-75 CNS
SNB-78 CNS = system: SNB-78 CNS
T-47D breast = system: T-47D breast
U251 CNS = system: U251 CNS
UACC-257 melanoma = system: UACC-257 melanoma
UACC-62 melanoma = system: UACC-62 melanoma

## CC(C)(C)OC(=O)N1N=NC2C3CC(=O)C(O3)C21 (stereo unspecified)
786-0 renal
  TGI: > 100000 nM
A498 renal
  TGI: > 100000 nM
A549 NSCLC
  TGI: > 100000 nM
ACHN renal
  TGI: > 100000 nM
CAKI-1 renal
  TGI: > 100000 nM
CCRF-CEM leukemia
  TGI: > 100000 nM
DLD-1 colon
  TGI: > 100000 nM
DMS 273 small cell lung
  TGI: > 100000 nM
EKVX NSCLC
  TGI: > 100000 nM
HOP-18 NSCLC
  TGI: > 100000 nM
HOP-92 NSCLC
  TGI: > 100000 nM
IGROV1 ovarian
  TGI: > 100000 nM
K-562 leukemia
  TGI: > 100000 nM
KM20L2 colon
  TGI: > 100000 nM
LXFL 529 NSCLC
  TGI: > 100000 nM
M14 melanoma
  TGI: > 100000 nM
MALME-3M melanoma
  TGI: > 100000 nM
MOLT-4 leukemia
  TGI: > 100000 nM
NCI-H460 lung
  TGI: > 100000 nM
NCI-H522 lung
  TGI: > 100000 nM
OVCAR-3 ovarian
  TGI: > 100000 nM
OVCAR-8 ovarian
  TGI: > 100000 nM
RPMI-8226 leukemia
  TGI: > 100000 nM
RXF 393 renal
  TGI: > 100000 nM
RXF-631 renal
  TGI: > 100000 nM
SF-295 CNS
  TGI: > 100000 nM
SF-539 CNS
  TGI: > 100000 nM
SK-MEL-5 melanoma
  TGI: > 100000 nM
SN12C renal
  TGI: > 100000 nM
SR leukemia
  TGI: > 100000 nM
SW-620 colon
  TGI: > 100000 nM
TK-10 renal
  TGI: > 100000 nM
UO-31 renal
  TGI: > 100000 nM

## CC(=O)c1cccc(NC2C(N)C(NC(=O)N(C)C)(C(C)O)C(C)(O)C2(O)COC(=O)c2c(C)cccc2O)c1 (stereo unspecified)
786-0 renal
  TGI: 14.6 nM
A498 renal
  TGI: < 1 nM
A549 NSCLC
  TGI: 347 nM
ACHN renal
  TGI: 334 nM and 539 nM
BT-549 breast
  TGI: 12 nM
CAKI-1 renal
  TGI: 23.5 nM
CCRF-CEM leukemia
  TGI: 205 nM
DMS 114 small cell lung
  TGI: 85.5 nM
DU-145 prostate
  TGI: 20.2 nM
EKVX NSCLC
  TGI: 80 nM
HCC-2998 colon
  TGI: 2.95 nM
HCT-116 colon
  TGI: 43.7 nM and 185 nM
HCT-15 colon
  TGI: 1010 nM
HL-60(TB) leukemia
  TGI: < 1 nM
HOP-62 NSCLC
  TGI: 78.6 nM
HS 578T breast
  TGI: 12.2 nM
HT29 colon
  TGI: 1080 nM and 113 nM
K-562 leukemia
  TGI: 150 nM
KM12 colon
  TGI: 213 nM and 164 nM
KM20L2 colon
  TGI: 372 nM
LXFL 529 NSCLC
  TGI: 1010 nM
M14 melanoma
  TGI: 300 nM
M19-MEL melanoma
  TGI: 203 nM
MCF7 breast
  TGI: 1130 nM
MDA-MB-231 breast
  TGI: 208 nM
MDA-MB-435
  TGI: 15.7 nM
MDA-N
  TGI: 13.5 nM
MOLT-4 leukemia
  TGI: 835 nM
NCI-H226 lung
  TGI: 1.41 nM
NCI-H522 lung
  TGI: 64.1 nM
NCI/ADR-RES ovarian
  TGI: 591 nM
OVCAR-3 ovarian
  TGI: 262 nM
OVCAR-5 ovarian
  TGI: 45.7 nM and 186 nM
OVCAR-8 ovarian
  TGI: 131 nM
SF-268 CNS
  GI50: < 1 nM
SF-295 CNS
  TGI: 164 nM and 231 nM
SF-539 CNS
  TGI: < 1 nM
SK-MEL-2 melanoma
  TGI: 18.6 nM
SK-MEL-28 melanoma
  TGI: 1040 nM and 532 nM
SK-MEL-5 melanoma
  TGI: 22.7 nM
SK-OV-3 ovarian
  TGI: 80.8 nM and 205 nM
SN12C renal
  TGI: 106 nM
SNB-19 CNS
  TGI: 99.2 nM and 936 nM
SNB-75 CNS
  GI50: < 1 nM
SNB-78 CNS
  TGI: 54.1 nM
SR leukemia
  TGI: > 100000 nM
SW-620 colon
  TGI: 1750 nM
T-47D breast
  TGI: 8.34 nM
TK-10 renal
  TGI: 118 nM
U251 CNS
  TGI: 109 nM
UACC-257 melanoma
  GI50: 31.4 nM
UACC-62 melanoma
  TGI: 119 nM
UO-31 renal
  TGI: 194 nM and 257 nM
